In patent US10450311B2, “Pesticidally active heterocyclic derivatives with sulphur containing substituents” (Syngenta Participations AG, priority 2014, dated 2019):

How the values were obtained:
Assay type in all cases: in vivo
[1] = test system: Euschistus heros (Neotropical Brown Stink Bug); assay: Activity against Euschistus heros, sprayed soybean leaf; conditions: 120 h, application rate of 200 ppm, N-2 nymphs on soybean leaf, 5 days after infestation
Procedure: Example B3: Activity Against Euschistus heros (Neotropical Brown Stink Bug)
Soybean leaf on agar in 24-well microtiter plates were sprayed with aqueous test solutions prepared from 10′000 ppm DMSO stock solutions. After drying the leaf were infested with N-2 nymphs. The samples were assessed for mortality 5 days after infestation.

[2] = test system: Myzus persicae (Green Peach Aphid); assay: Activity against Myzus persicae, sprayed sunflower leaf discs; conditions: foliar, 144 h, application rate of 200 ppm, aphid population of mixed ages on sunflower leaf discs, 6 days after infestation
Procedure: Example B5: Activity Against Myzus persicae (Green Peach Aphid)
(§1) Sunflower leaf discs were placed on agar in a 24-well microtiter plate and sprayed with aqueous test solutions prepared from 10′000 ppm DMSO stock solutions. After drying, the leaf discs were infested with an aphid population of mixed ages. The samples were assessed for mortality 6 days after infestation.

[3] = test system: Tetranychus urticae (Two-Spotted Spider Mite); assay: Activity against Tetranychus urticae, feeding/contact activity; conditions: foliar, 192 h
Procedure: Example B12: Activity Against Tetranychus urticae (Two-Spotted Spider Mite): Feeding/Contact Activity
Bean leaf discs on agar in 24-well microtiter plates were sprayed with aqueous test solutions prepared from 10′000 ppm DMSO stock solutions. After drying the leaf discs were infested with a mite population of mixed ages. The samples were assessed for mortality on mixed population (mobile stages) 8 days after infestation.

[4] = test system: Bemisia tabaci (Cotton White Fly); assay: Activity against Bemisia tabaci, sprayed cotton leaf discs; conditions: foliar, 144 h, application rate of 200 ppm, adult white flies on cotton leaf discs, 6 days after incubation
Procedure: Example B1: Activity Against Bemisia tabaci (Cotton White Fly)
Cotton leaf discs were placed on agar in 24-well microtiter plates and sprayed with aqueous test solutions prepared from 10′000 ppm DMSO stock solutions. After drying the leaf discs were infested with adult white flies. The samples were checked for mortality 6 days after incubation. […] A35, A36 and A47. A1. A2, A3, A8, A10, A14 and A12.

[5] = test system: Diabrotica balteata (Corn Root Worm); assay: Activity against Diabrotica balteata, sprayed maize sprouts; conditions: 96 h, application rate of 200 ppm, larvae on maize sprouts, 4 days after infestation
Procedure: Example B2: Activity Against Diabrotica balteata (Corn Root Worm)
Maize sprouts, placed on an agar layer in 24-well microtiter plates were treated with aqueous test solutions prepared from 10′000 ppm DMSO stock solutions by spraying. After drying, the plates were infested with […] (6 to 10 per well). The samples were assessed for mortality 4 days after infestation.

[6] = test system: Frankliniella occidentalis (Western Flower Thrips); assay: Activity against Frankliniella occidentalis, sprayed sunflower leaf discs; conditions: foliar, 168 h, application rate of 200 ppm, population of mixed ages on sunflower leaf discs, 7 days after infestation
Procedure: Example B4: Activity Against Frankliniella occidentalis (Western Flower Thrips)
as §1, with “in” for “in a”, “plates” for “plate”, “[…]” for “10′000 ppm”, “drying” for “drying,”, “a Frankliniella” for “an aphid”, “7” for “6”

[7] = test system: Myzus persicae (Green Peach Aphid); assay: Activity against Myzus persicae, roots of infested pea seedlings in test solution; conditions: 144 h, test rate of 24 ppm, 6 days
Procedure: Example B6: Activity Against Myzus persicae (Green Peach Aphid)
Roots of pea seedlings infested with an aphid population of mixed ages were placed directly in the aqueous test solutions prepared from 10′000 DMSO stock solutions. The samples were assessed for mortality 6 days after placing seedlings in test solutions.

[8] = test system: Myzus persicae (Green Peach Aphid); assay: Activity against Myzus persicae, sucrose solution under Parafilm; conditions: 120 h, test rate of 12 ppm, mixed with sucrose solution, 5 days after infestation
Text: Example B7: Activity Against Myzus persicae (Green Peach Aphid)
Test compounds from 10′000 ppm DMSO stock solutions were applied by pipette into 24-well microtiter plates and mixed with sucrose solution. The plates were closed with a stretched Parafilm. A plastic stencil with 24 holes was placed onto the plate and infested pea seedlings were placed directly on the Parafilm. The infested plate was closed with a gel blotting paper and another plastic stencil and then turned upside down. The samples were assessed for mortality 5 days after infestation. […] A30 and A32.

[9] = test system: Plutella xylostella (Diamond Back Moth); assay: Activity against Plutella xylostella, treated artificial diet; conditions: 120 h, application rate of 200 ppm, L2 larvae on artificial diet, 5 days after infestation, read-out: effect in at least one of the two categories (mortality or growth inhibition)
Procedure: Example B8: Activity Against Plutella xylostella (Diamond Back Moth)
24-well microtiter plates with artificial diet were treated with aqueous test solutions prepared from 10′000 ppm DMSO stock solutions by pipetting. After drying, the plates were infested with L2 larvae (10 to 15 per well). The samples were assessed for mortality and growth inhibition in comparison to untreated samples 5 days after infestation.

[10] = test system: Spodoptera littoralis (Egyptian Cotton Leaf Worm); assay: Activity against Spodoptera littoralis, sprayed cotton leaf discs; conditions: foliar, 72 h, application rate of 200 ppm, L1 larvae on cotton leaf discs, 3 days after infestation, read-out: control (at least one of mortality, anti-feedant effect, growth inhibition)
Procedure: Example B9: Activity Against Spodoptera littoralis (Egyptian Cotton Leaf Worm)
Cotton leaf discs were placed on agar in 24-well microtiter plates and sprayed with aqueous test solutions prepared from 10′000 ppm DMSO stock solutions. After drying the leaf discs were infested with five L1 larvae. The samples were assessed for mortality, anti-feedant effect, and growth inhibition in comparison to untreated samples 3 days after infestation. Control of Spodoptera littoralis by a test sample is when at least one of mortality, anti-feedant effect, and growth inhibition is higher than the untreated sample.

[11] = test system: Spodoptera littoralis (Egyptian Cotton Leaf Worm); assay: Activity against Spodoptera littoralis, compound in agar taken up by lettuce; conditions: 144 h, test rate of 12.5 ppm, lettuce root uptake, 6 days after infestation, read-out: effect in at least one of the three categories (mortality, anti-feedancy, or growth inhibition)
Text: Example B10: Activity Against Spodoptera littoralis (Egyptian Cotton Leaf Worm)
(§2) Test compounds were applied by pipette from 10′000 ppm DMSO stock solutions into 24-well plates and mixed with agar. Lettuce seeds were placed on the agar and the multi well plate was closed by another plate which contains also agar. After 7 days the roots have absorbed the compound and the lettuce has grown into the lid plate. The lettuce leafs were now cut off into the lid plate. Spodoptera eggs were pipetted through a plastic stencil on a humid gel blotting paper and the plate closed with it. The samples were assessed for mortality, anti-feedant effect and growth inhibition in comparison to untreated samples 6 days after infestation.

[12] = test system: Spodoptera littoralis (Egyptian Cotton Leaf Worm); assay: Activity against Spodoptera littoralis, systemic activity; conditions: 144 h, test rate of 12.5 ppm, in agar, lettuce root uptake, 6 days after infestation
Text: Example B11: Activity Against Spodoptera littoralis (Egyptian Cotton Leaf Worm), Systemic Activity
as §2, with “mortality” for “mortality, anti-feedant effect and growth inhibition in comparison to untreated samples”

[13] = test system: Thrips tabaci (Onion Thrips); assay: Activity against Thrips tabaci, feeding/contact activity; conditions: foliar, 144 h, application rate of 200 ppm, thrips population of mixed ages on sunflower leaf discs, 6 days after infestation
Procedure: Example B13: Activity Against Thrips tabaci (Onion Thrips) Feeding/Contact Activity
as §1, with “in” for “in a”, “plates” for “plate”, “drying” for “drying,”, “a thrips” for “an aphid”

[14] = test system: Aedes aegypti (Yellow Fever Mosquito); assay: whole plant or invertebrate; conditions: 48 h, test rate of 5 ppm, L2 larvae in 96-well plates, incubation period of 2 days, read-out: effect in at least one of the two categories (mortality or growth inhibition)
Procedure: Example B14: Activity Against Aedes aegypti (Yellow Fever Mosquito)
10 to 15 Aedes larvae (L2) together with a nutrition mixture were placed in 96-well microtiter plates. Test compounds were pipetted into the wells. After an incubation period of 2 days insects were assessed for mortality and growth inhibition.

CCSc1cc(Br)cnc1-c1nc2cc(C(F)(F)F)n(C)c(=O)c2n1C [Compound A20, 2-(5-bromo-3-ethylsulfanyl-2-pyridyl)-3,5-dimethyl-6-(trifluoromethyl)imidazo[4,5-c]pyridin-4-one]
≥ 80%: mortality at 200 ppm [1] | mortality at 200 ppm [2] | mortality at 200 ppm [3]

CCS(=O)(=O)c1cc(C(F)(F)F)cnc1-c1nc2cc(C(F)(F)F)n(C)c(=O)c2n1C [Compound A1, 2-[3-ethylsulfonyl-5-(trifluoromethyl)-2-pyridyl]-3,5-dimethyl-6-(trifluoromethyl)imidazo[4,5-c]pyridin-4-one]
≥ 80%: mortality at 200 ppm [4] | mortality at 200 ppm [5] | mortality at 200 ppm [1] | mortality at 200 ppm [6] | mortality at 200 ppm [2] | mortality at 24 ppm [7] | mortality at 12 ppm [8] | percent effect (mortality or growth inhibition) at 200 ppm [9] | percent control (mortality, anti-feedant effect or growth inhibition) at 200 ppm [10] | percent control (mortality, anti-feedancy or growth inhibition) at 12.5 ppm [11] | mortality at 12.5 ppm [12] | mortality at 200 ppm [13] | percent effect (mortality or growth inhibition) at 5 ppm [14]
